Measured values as given in patent US20100210713A1, “REGENERATION AND SURVIVAL OF CARDIAC PROGENITORS AND CARDIOMYOCYTES WITH A STRETCH ACTIVATED TRANSCRIPTION FACTOR” (THE GENERAL HOSPITAL CORPORATION, priority 2009, published 2010).
Entries after “also recorded” stand apart in the source; their conditions may differ. Each block holds one molecule with its values, some of them ahead of it.

What was measured:
Creb312 [1] = experiment: Formation of nuclear Creb312 in Ad.Creb312(FL)-transduced NRVM under biaxial mechanical stretch after pathway inhibition (immunoblot); assay type: cell-based, rat; settings: NRVM with Ad.Creb312(FL), inhibitor 30 min prior to 10% pulsary (cyclic) biaxial stretch, Akt1/2 inhibitor 1 μM, SH6 10 μM, LY294002 10 μM, PD98059 25 μM, U0126 10 μM, SP600125 10 μM, PP2 1 μM, SB203580 25 μM, wortmannin 200 nM, FIG. 5
Experimental: Biaxial mechanical stretch experiments. Freshly isolated NRVM were seeded at 10^6 on fibronectin-coated silicon membranes and transduced with Ad.Creb312(FL) 48 h later. 2 days later, biaxial mechanical stretch experiments were carried out on devices as previously described (Ref, Andre Kleber paper) for indicated times. Cells were rinsed once in ice-cold PBS, harvested, lysed and processed for immunoblot. For inhibition experiments, NRVM were treated with chemical inhibitors for 30 min prior to stretching. All chemical inhibitors used were from Calbiochem except Akt1/2 inhibitor and wortmannin (Sigma). Concentrations used were: Akt1/2 inhibitor (1 μM), SH6 (10 μM), LY294002 (10 μM), PD98059 (25 μM), U0126 (10 μM), SP600125 (10 μM), PP2 (1 μM), SB203580 (25 μM), wortmannin (200 nM). […]
Immunoprecipitation and Immunoblot. For immunoprecipitation, 10 μg pcDNA3/3xFlag-Creb312(N) were transfected into COS7 cells with Fugene HD (Roche). 48 h later, cells were washed once with PBS, harvested and lysed in 50 mM Tris-HCl pH 7.4, 150 mM NaCl, 1% Triton X-100 and Complete Protease Inhibitor (Roche) on ice. After centrifugation at 13000 rpm, 30 min, 4C, the supernatant was used for subsequent experiments. Embryonic hearts of various stages were homogenized in ice-cold PBS with a Rotor-Stator Homogenizer, and nuclear extracts were prepared from the cell pellets using the NE-PER Nuclear and Cytoplasmic Extraction Reagents (Pierce). Protein concentrations were determined with the Protein Assay Dye Reagent (Bio-Rad). 1.8 mg 3× Flag-Creb312(N) protein extract and 25 μg heart nuclear extract were rotated with 40 μl anti-Flag M2 Affinity gel (Sigma) at 4C over night. Resins were washed twice each with 50 mM Tris-HCl pH 7.4, 150 mM NaCl with or without 0.1% Triton X-100, eluted with 15 μg 3× Flag peptide (Sigma), and 25 μl or 75 μl eluate were loaded on 10% SDS-polyacrylamide gels for subsequent immunoblot analysis. For immunoblots of mechanical stretch- or chemically treated-cardiomyocytes, 25 μg total cell extract were separated on 10% SDS-polyacrylamide gels. Primary antibodies used were: anti-Flag M2 (Sigma, 1:200), anti-HA (Bethyl, 1:4000), anti-Creb312 (1:2000), anti-phospho (Ser473)Akt (Cell Signaling, 1:1000), anti-phospho (Thr308)Akt (Cell Signaling, 1:1000), anti-Akt (Cell Signaling, 1:1000), anti-phospho p44/42 (Cell Signaling, 1:1000). Secondary antibodies (horseradish peroxidase-conjugated rabbit anti-mouse IgG or goat anti-rabbit IgG, Dako) were used at 1:10^5′ and immunoblots were developed with SuperSignal West Femto Substrate (Pierce).

Creb312 [2] = experiment: Proteolytic cleavage of HA-tagged full-length Creb312 to the nuclear form in NRVM after chemical ER stressors or hypertrophic agonists (Western Blot, anti-HA); assay type: cell-based, rat
Experimental: Isolation of neonatal rat ventricular cardiomyocytes. All procedures described below were conducted according to the guidelines of the Harvard University Animal Care and Use Committee. Ventricular myocytes were isolated from 2 day-old Sprague Dawley rats as briefly described. Excised ventricular tissue was agitated in a 0.1% trypsin solution cooled to 4° C. for approximately 14 hours. Trypsinized ventricles were dissociated into their cellular constituents via serial exposure to a 0.1% solution of collagenase type II at 37° C. for 2 minutes. The myocyte portion of the cell population was enriched by passing the dissociated cell solution through a nylon mesh with 40 μm pores, and then pre-plating twice for 45 minutes each time. 10^6 isolated myocytes were seeded onto silicon membranes coated with fibronectin in culture medium consisting of M199 base supplemented with 10% heat-inactivated Fetal Bovine Serum, 10 mM HEPES, 20 mM glucose, 2 mM L-glutamine, 1.5 ? M vitamin B-12, and 50 U/ml penicillin. On the second day of culture, the serum concentration of the medium was reduced to 2%, and the medium was changed every 48 hours thereafter.
Adenovirus preparation and infection. Replication-defective recombinant adenoviruses expressing GFP and either HA-Creb312(FL) or HA-Creb312(N) under the control of CMV in bicistronic cassettes were generated using the AdEasy XL system (Stratagene). Briefly, HA-Creb312(FL) or HA-Creb312(N) were subcloned into the adenovirus shuttle vector pAdTrack-CMV (generous gift by Bert Vogelstein, Ref), and these constructs used for the generation of Ad.Creb312(FL) or Ad.Creb312(N), respectively, according to manufacturer's instructions. Adenoviral shuttle constructs for the expression of miRNAs against rat ILK, rat FAK, rat Creb312 under the control of hCMV were obtained by subcloning the XbaI/HindIII fragments of the respective miRNA expression constructs in pcDNA6-GW/EmGFP-miR (Invitrogen) into pShuttle (Stratagene). The recombinant adenoviruses were concentrated and purified by CsCl gradient ultracentrifugation, and the virus titer was determined through plaque assay.
NRVM were transduced with adenovirus at 5 moi (multiplicity of infection) in serum-free M199 for 90 min and maintained for 48 h in M-199/2% FCS before mechanical stretch, hypoxia experiments or treatment with chemicals.
Treatment with chemical ER stressors, cardiac hypertrophic agonists, hypoxic stress. 5×10^5 NRVM were plated in 6 well plates, transduced with Ad.Creb312(FL) and treated 48 h afterwards with tunicamycin (Tm), thapsigargin (Tg), brefeldin A (BFA) or DTT (1 mM) for 30 min and harvested for immunoblot analyses. Alternatively, NRVM were treated with phenylephrine, angiotensin II, endothelin or isoproterenol for 24 h. For hypoxic stress, 5×10^5 NRVM were plated in 6 well plates and switched from 20% O2/5% CO2 to 0.1% O2/5% CO2 for the indicated times.
Immunoprecipitation and Immunoblot. For immunoprecipitation, 10 μg pcDNA3/3xFlag-Creb312(N) were transfected into COS7 cells with Fugene HD (Roche). 48 h later, cells were washed once with PBS, harvested and lysed in 50 mM Tris-HCl pH 7.4, 150 mM NaCl, 1% Triton X-100 and Complete Protease Inhibitor (Roche) on ice. After centrifugation at 13000 rpm, 30 min, 4C, the supernatant was used for subsequent experiments. Embryonic hearts of various stages were homogenized in ice-cold PBS with a Rotor-Stator Homogenizer, and nuclear extracts were prepared from the cell pellets using the NE-PER Nuclear and Cytoplasmic Extraction Reagents (Pierce). Protein concentrations were determined with the Protein Assay Dye Reagent (Bio-Rad). 1.8 mg 3× Flag-Creb312(N) protein extract and 25 μg heart nuclear extract were rotated with 40 μl anti-Flag M2 Affinity gel (Sigma) at 4C over night. […]

BNP promoter region = experiment: BNP promoter regulated luciferase gene expression assay; assay type: cell-based; settings: for BNP regulated luciferase gene expression: 10 ng DNA
Text: (§1) FIGS. 8A-8D show the nuclear form of Creb312 activates BNP regulated luciferase gene expression.

ANF promoter region = experiment: ANF promoter regulated luciferase gene expression assay; assay type: cell-based; settings: 700 bp promoter region of ANF; 50 ng DNA; FIG. 8B
Text: as §1

[3] = NRVM transduced with Ad.Creb312(FL), ER stress-inducing chemicals, within one hour, Western Blot anti-HA
[4] = NRVM expressing HA-Creb312(FL), 24 h exposure to hypertrophic agonists, FIG. 4D

Molecule: N#CC(=C(/N)Sc1ccccc1N)/C(C#N)=C(\N)Sc1ccccc1N [U0126]
- effect on formation of the proteolytically cleaved, nuclear form of Creb312 in response to mechanical stretch (Creb312 [1]): did not show any effect; also recorded: did not inhibit

Molecule: CC(C)(C)n1nc(-c2ccc(Cl)cc2)c2c(N)ncnc21 [PP2]
- effect on formation of the proteolytically cleaved, nuclear form of Creb312 in response to mechanical stretch (Creb312 [1]): did not show any effect; also recorded: did not inhibit

Molecule: O[C@H](CS)[C@H](O)CS (racemic) [DTT, dithiothreitol]
- proteolytic cleavage of Creb312 (formation of the nuclear form) (Creb312 [2]; [3]): to a lesser extend

Molecule: CC[C@H](C)[C@H](NC(=O)[C@H](CC(=O)O)NC(=O)[C@H](CC(C)C)NC(=O)[C@H](Cc1c[nH]cn1)NC(=O)[C@@H]1CSSC[C@H](N)C(=O)N[C@@H](CO)C(=O)N[C@H]2CSSC[C@H](NC(=O)[C@H](CCC(=O)O)NC(=O)[C@H](CCCCN)NC(=O)[C@H](CC(=O)O)NC(=O)[C@H](CCSC)NC(=O)[C@H](CC(C)C)NC(=O)[C@H](CO)NC(=O)[C@H](CO)NC2=O)C(=O)N[C@@H](C(C)C)C(=O)N[C@@H](Cc2ccc(O)cc2)C(=O)N[C@@H](Cc2ccccc2)C(=O)N1)C(=O)N[C@H](C(=O)N[C@@H](Cc1c[nH]c2ccccc12)C(=O)O)[C@@H](C)CC [endothelin-1]
- proteolytic cleavage of Creb312 (formation of the nuclear form) (Creb312 [2]; [4]): formation of the proteolytically cleaved, nuclear form of Creb312

Molecule: O=c1[nH]c2ccccc2n1C1CCN(Cc2ccc(-c3nc4cc5[nH]cnc5cc4nc3-c3ccccc3)cc2)CC1 [Akt1/2]
- effect on formation of the proteolytically cleaved, nuclear form of Creb312 in response to mechanical stretch (Creb312 [1]): complete ablation
- effect on formation of the proteolytically cleaved, nuclear form of Creb312 in response to mechanical stretch (Creb312 [1]; listed as Akt1/2 Inh): completely inhibited

Molecule: CCCC(=O)Nc1ncnc2c1ncn2[C@@H]1O[C@@H]2COP(=O)(O)O[C@H]2[C@H]1OC(=O)CCC [dbcA]
- formation of nuclear Creb312 in response to cAMP treatment (Creb312 [2]; NRVM, data not shown): nuclear Creb312 is formed

Molecule: CNC[C@H](O)c1cccc(O)c1 [phenylephrine]
- proteolytic cleavage of Creb312 (formation of the nuclear form) (Creb312 [2]; [4]): most strongly induced; also recorded: formation of the proteolytically cleaved, nuclear form of Creb312

Molecule: C[C@H]1CCC/C=C/[C@@H]2C[C@H](O)C[C@H]2[C@H](O)/C=C/C(=O)O1 [brefeldinA]
- proteolytic cleavage of Creb312 (formation of the nuclear form) (Creb312 [2]; [3]): caused proteolytic cleavage of Creb312

Molecule: angiotensin-2 (DRVYIHPF; Angiotensin-2; UniProt P01019 25-32, looked up) [hypertrophic agonist]
- proteolytic cleavage of Creb312 (formation of the nuclear form) (Creb312 [2]; [4]): formation of the proteolytically cleaved, nuclear form of Creb312

Molecule: Oc1c2ccccc2c2c3c(cccc13)N=N2 [SP600125]
- effect on formation of the proteolytically cleaved, nuclear form of Creb312 in response to mechanical stretch (Creb312 [1]): did not inhibit

Molecule: C/C=C(/C)C(=O)O[C@H]1C(C)=C2[C@H]([C@@H]1OC(=O)CCCCCCC)[C@@](C)(OC(C)=O)C[C@H](OC(=O)CCC)[C@@]1(O)[C@H]2OC(=O)[C@@]1(C)O [thapsigargin]
- proteolytic cleavage of Creb312 (formation of the nuclear form) (Creb312 [2]; [3]): caused proteolytic cleavage of Creb312

Molecule: COc1cccc(-c2cc(=O)c3ccccc3o2)c1N [PD98059]
- effect on formation of the proteolytically cleaved, nuclear form of Creb312 in response to mechanical stretch (Creb312 [1]): did not show any effect; also recorded: did not inhibit

Molecule: CC(C)NCC(O)c1ccc(O)c(O)c1 (centres unmarked) [isoproterenol]
- proteolytic cleavage of Creb312 (formation of the nuclear form) (Creb312 [2]; [4]): most strongly induced; also recorded: formation of the proteolytically cleaved, nuclear form of Creb312

Molecule: tunicamycin
- proteolytic cleavage of Creb312 (formation of the nuclear form) (Creb312 [2]; [3]): to a lesser extend

Molecule: C[S+]([O-])c1ccc(-c2nc(-c3ccncc3)c(-c3ccc(F)cc3)[nH]2)cc1 (centres unmarked) [SB203580]
- effect on formation of the proteolytically cleaved, nuclear form of Creb312 in response to mechanical stretch (Creb312 [1]): did not show any effect; also recorded: did not inhibit

- BNP regulated luciferase gene expression (BNP promoter region; 2 kb promoter region of BNP, FIG. 8C): induced
- BNP regulated luciferase gene expression (BNP promoter region; 135 bp promoter region of BNP, FIG. 8D): induced
- fold activation of luciferase gene expression (BNP promoter region; (−135 to −115) BNP promoter region, 200 ng DNA, FIG. 10C): three fold
- ANF regulated luciferase gene expression (ANF promoter region): induced
B1: Creb312(N): nuclear form of Creb312, residues 1-376 of the full length Creb312 (SEQ ID NO: 3) (protein, listed as Homo sapiens)
chain: MEVLESGEQGVLQWDRKLSELSEPGDGEALMYHTHFSELLDEFSQNVLGQLLNDPFLSEKSVSMEVEPSPTSPAPLIQAEHSYSLCEEPRAQSPFTHITTSDSFNDDEVESEKWYLSTDFPSTSIKTEPVTDEPPPGLVPSVTLTITAISTPLEKEEPPLEMNTGVDSSCQTIIPKIKLEPHEVDQFLNFSPKEAPVDHLHLPPTPPSSHGSDSEGSLSPNPRLHPFSLPQTHSPSRAAPRAPSALSSSPLLTAPHKLQGSGPLVLTEEEKRTLIAEGYPIPTKLPLSKSEEKALKKIRRKIKNKISAQESRRKKKEYMDSLEKKVESCSTENLELRKKVEVLENTNRTLLQQLQKLQTLVMGKVSRTCKLAGTQT
